Results taken from article PMC5108564, “Use of ferrous iron by metallo-β-lactamases” (Journal of Inorganic Biochemistry, 2016).
Where “and” joins values, the source holds several entries; their conditions need not be identical. Equal values may be shown once.

Experiments:
di-Fe(II) BcII [1] = target: T1, di-Fe(II) BcII (Bacillus cereus, UniProt P04190); experiment: Inhibition assay with nitrocefin as reporter substrate; type: biochemical
T1 construct: made in house; host or cells: E. coli BL21(DE3)pLysS
T1 sequence (P04190 31-257): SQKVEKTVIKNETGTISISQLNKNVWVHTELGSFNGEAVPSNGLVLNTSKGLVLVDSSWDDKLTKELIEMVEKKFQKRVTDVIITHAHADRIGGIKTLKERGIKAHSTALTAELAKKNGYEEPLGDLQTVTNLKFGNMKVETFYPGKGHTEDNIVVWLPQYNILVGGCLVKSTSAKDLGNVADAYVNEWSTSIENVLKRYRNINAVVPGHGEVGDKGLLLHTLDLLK
Experimental: (§1) Enzyme concentrations were the same as those employed in equilibrium kinetic studies. […] Residual enzyme activity was determined for a range of inhibitor concentrations. Non-linear regression fitting of IC50 curves was carried out using a three-parameter dose-response curve in GraphPad Prism. Errors are expressed as: σlogIC50/logIC50×IC50 .
(§2) MBL inhibition is a current target for medicinal chemistry, [63]. Given the observed differences in metal binding geometries between the di-Fe(II) and di-Zn(II) form of BcII and in the kinetic properties of di-Fe(II) BcII and VIM-2 compared to their di-Zn(II) enzymes, we then investigated whether the two metal-substituted BcII enzymes might respond differently to known MBL inhibitors (Table 3 and Fig. S12). We were particularly interested to see if the two enzyme forms responded differently to thiol-based MBL inhibitors, since the sulfur often bridges the two metal centres as an analogue of the bridging water during inhibition, [64].

di-Zn(II) BcII [2] = target: T2, di-Zn(II) BcII (Bacillus cereus, UniProt P04190); experiment: as above; type: biochemical
T2 construct: made in house; host or cells: E. coli BL21(DE3)pLysS
T2 sequence (P04190 31-257): as above
Experimental: as §1, §2

di-Zn(II) VIM-2 [3] = target: T3, di-Zn(II) VIM-2 (Pseudomonas aeruginosa, UniProt Q9K2N0); settings: meropenem as substrate, VIM-2 Zn(II), [E] 5 nM
Experimental: (§5) Steady-state kinetic studies were carried out using a Pherastar FS microplate reader and UV-Star 96 well clear microplates (Greiner Bio-One). Samples of 1 mM apo-enzyme were pre-incubated with two equivalents of TCEP·HCl for 5 min prior to addition of 3.5 equivalents of the desired metal before dilution to concentrations required for kinetic assays. For Fe(II)-substituted enzymes, plates were prepared at ≤ 2 ppm O2 using deoxygenated buffer and sealed prior to absorbance readings. […] Substrate concentrations ranged between 400 μM and 0.4 μM. The Michaelis-Menten equation was fitted to data by non-linear regression using GraphPad Prism software to calculate the Michaelis-Menten constant and the limiting rate [43].

di-Fe(II) VIM-2 [4] = target: T4, di-Fe(II) VIM-2 (Pseudomonas aeruginosa, UniProt Q9K2N0); settings: meropenem as substrate, VIM-2 Fe(II), [E] 30 nM, low O2
Experimental: as §5

di-Zn(II) BcII [5] = target: T2, di-Zn(II) BcII; experiment: Stopped-flow UV/Vis absorption kinetics of nitrocefin hydrolysis; type: biochemical; settings: for Substrate Decay: 1:1 enzyme:nitrocefin, 5 °C; for Product accumulation: 1:1, 5 °C
Experimental: (§3) All metal solutions and metal-substituted enzymes for stopped-flow kinetics were prepared at ≤ 40 ppm O2 using deoxygenated buffers. Buffers used were: 50 mM HEPES pH 7.5, 200 mM NaCl; 50 mM MES pH 6.5, 200 mM NaCl; 50 mM MES pH 5.5, 200 mM NaCl. All buffers were treated with Chelex 100 to remove residual metal ions. Aliquots of apo-enzyme were diluted to 100 μM by addition of reaction buffer (1 mL final volume). The enzyme was incubated with two equivalents of tris(2-carboxyethyl)phosphine hydrochloride salt (TCEP·HCl), by addition of 2 μL of a 100 mM stock, for 5 min. Metal-substituted enzymes were then produced by the addition of 3.5 equivalents of metal salt to the apo-enzyme (3.5 μL of a 100 mM stock in buffer). […] Spectra were recorded over 100 s using a photodiode-array detector. Subsequent analysis of kinetic traces was carried out using Origin 8.5 [41]. Curves corresponding to substrate depletion (390 nm) and product accumulation (485 nm) were fitted by a single exponential function, whilst 665 nm features were fitted by a double exponential function.
(§4) Note that difference spectra were employed to identify the λmax of the feature and indicate that the feature corresponds to an independent species. […] Thus the observation of a visible reaction intermediate absorbing at 665 nm depends on the particular metal-enzyme combination employed.

di-Fe(II) BcII [6] = target: T1, di-Fe(II) BcII; experiment: as above; type: biochemical; design: k1 / k-1 / k2 / k3 / k4 / k5: unit not given here; settings: for Substrate Decay / Product accumulation / Intermediate Decay / Intermediate accumulation: Fe(II), 1:1, 5 °C; for k1: 50 µM enzyme, 50 µM nitrocefin
Experimental: as §3, §4
The observation of an intermediate at 665 nm with di-Fe(II) BcII strongly correlates with increasing pH, with a larger change in absorbance amplitude at pH 7.5 (ΔAbsmax at pH 7.5 is 0.25 compared to ΔAbsmax at pH 6.5 and 5.5 of 0.15 and 0.05, respectively, Fig. 2 & Figs. S4–5). […] Data fitting using the Kintek Explorer package was unable to distinguish between linear and branched pathways (Fig. S11), but in both fittings the decay of the intermediate species was identified as the rate-limiting step (k3 and k4 in Tables S4 and S5, respectively). Although intermediate decay is apparently rate limiting, a negligible amount of intermediate is seen at pH 5.5. This may be explained either by a branched pathway, in which the branch with no intermediate is favoured by lower pH, or by a linear pathway in which the rate of decay of the intermediate rises with a decrease in pH thus preventing an observable accumulation of intermediate.

di-Fe(II) VIM-2 [7] = target: T4, di-Fe(II) VIM-2; experiment: as above; type: biochemical; design: His-tag (3C protease site) (N, cleaved yes); made in house; host or cells: E. coli BL21(DE3)pLysS; settings: 1:1, 5 °C
Experimental: as §3, §4

di-Zn(II) VIM-2 [8] = target: T3, di-Zn(II) VIM-2; experiment: as above; type: biochemical; design: His-tag (3C protease site) (N, cleaved yes); made in house; host or cells: E. coli BL21(DE3)pLysS; settings: 1:1, 5 °C
Experimental: as §3, §4

[9] = tested on: C[C@@H](O)[C@H]1C(=O)N2C(C(=O)O)=C(S[C@@H]3CN[C@H](C(=O)N(C)C)C3)[C@H](C)[C@H]12; experiment: purified protein, by the assay type; settings: other: meropenem as substrate, [E] 2 nM
Experimental: as §5

[10] = tested on: O=C(Cc1cccs1)N[C@@H]1C(=O)N2C(C(=O)O)=C(/C=C/c3ccc([N+](=O)[O-])cc3[N+](=O)[O-])CS[C@H]12; experiment: purified protein, by the assay type; settings: other: nitrocefin as substrate
[11] = Kintek Explorer fit, branched mechanism, pH 7.5, 5°C
[12] = Kintek Explorer fit, linear mechanism, pH 7.5, 5°C

O=C(O)CN(CCN(CC(=O)O)CC(=O)O)CC(=O)O [EDTA]
IC50 (di-Fe(II) BcII [1]): 4700 ± 100 µM | IC50 (di-Zn(II) BcII [2]): 7500 ± 300 µM

O=C(O)/C(S)=C/c1c(Cl)ccc(Cl)c1Cl [ML302F]
IC50 (di-Fe(II) BcII [1]): 0.38 ± 0.08 µM | fold difference in IC50 (di-Fe(II) BcII [1]; di-Fe(II) BcII versus di-Zn(II) BcII): ~10 fold | IC50 (di-Zn(II) BcII [2]): 0.046 ± 0.001 µM

O=C(O)C(S)c1ccccc1 (stereo not shown) [Thiomandelic acid]
IC50 (di-Fe(II) BcII [1]): 2.8 ± 0.8 µM | IC50 (di-Zn(II) BcII [2]): 1.3 ± 0.3 µM

C[C@@H](O)[C@H]1C(=O)N2C(C(=O)O)=C(S[C@@H]3CN[C@H](C(=O)N(C)C)C3)[C@H](C)[C@H]12 [meropenem]
Km (di-Zn(II) VIM-2 [3]): 10 ± 2 µM | kcat (di-Zn(II) VIM-2 [3]): 2.4 ± 0.1 s⁻¹ | Km (di-Fe(II) VIM-2 [4]): 16 ± 2 µM | kcat (di-Fe(II) VIM-2 [4]): 0.5 ± 0.0 s⁻¹

O=C(Cc1cccs1)N[C@@H]1C(=O)N2C(C(=O)O)=C(/C=C/c3ccc([N+](=O)[O-])cc3[N+](=O)[O-])CS[C@H]12 [nitrocefin]
Substrate Decay (di-Zn(II) BcII [5]; pH 5.5, 390 nm): 4.16 s⁻¹ and 4.16 ± 0.01 s⁻¹ | Product accumulation (di-Zn(II) BcII [5]; pH 5.5, 485 nm): 4.13 ± 0.01 s⁻¹ | Substrate Decay (di-Zn(II) BcII [5]; pH 6.5, 390 nm): 3.24 ± 0.01 s⁻¹ | Product accumulation (di-Zn(II) BcII [5]; pH 6.5, 485 nm): 3.29 ± 0.01 s⁻¹ | Substrate Decay (di-Zn(II) BcII [5]; pH 7.5, 390 nm): 2.55 s⁻¹ and 2.55 ± 0.01 s⁻¹ | Product accumulation (di-Zn(II) BcII [5]; pH 7.5, 485 nm): 2.75 ± 0.01 s⁻¹ | Substrate Decay (di-Fe(II) BcII [6]; pH 5.5, 390 nm): 3.88 s⁻¹ and 3.88 ± 0.01 s⁻¹ | Product accumulation (di-Fe(II) BcII [6]; pH 5.5, 485 nm): 5.78 ± 0.01 s⁻¹ | Substrate Decay (di-Fe(II) BcII [6]; pH 6.5, 390 nm): 5.25 ± 0.01 s⁻¹ | Product accumulation (di-Fe(II) BcII [6]; pH 6.5, 485 nm): 4.27 ± 0.01 s⁻¹ | Intermediate Decay (di-Fe(II) BcII [6]; pH 6.5, 665 nm): 1.2 ± 0.1 s⁻¹ | Intermediate accumulation (di-Fe(II) BcII [6]; pH 6.5, 665 nm): 18.31 ± 0.01 s⁻¹ | Substrate Decay (di-Fe(II) BcII [6]; pH 7.5, 390 nm): 7.25 s⁻¹ and 7.25 ± 0.01 s⁻¹ | Product accumulation (di-Fe(II) BcII [6]; pH 7.5, 485 nm): 7.20 ± 0.01 s⁻¹ | Intermediate Decay (di-Fe(II) BcII [6]; pH 7.5, 665 nm): 1.4 ± 0.1 s⁻¹ | Intermediate accumulation (di-Fe(II) BcII [6]; pH 7.5, 665 nm): 20.32 ± 0.01 s⁻¹ | k1 (di-Fe(II) BcII [6]; [11]): 239000 | k2 (di-Fe(II) BcII [6]; [11]): 46 | k3 (di-Fe(II) BcII [6]; [11]): 73.4 | k-1 (di-Fe(II) BcII [6]; [11]): 0.0000001 | k5 (di-Fe(II) BcII [6]; Kintek Explorer fit, branched mechanism, pH 7.5, 5°C, fixed): 100000000 | k4 (di-Fe(II) BcII [6]; Kintek Explorer fit, branched mechanism, pH 7.5, 5°C, intermediate decay, rate-limiting): 4.18 | k1 (di-Fe(II) BcII [6]; [12]): 225000 | k2 (di-Fe(II) BcII [6]; [12]): 82.7 | k-1 (di-Fe(II) BcII [6]; [12]): 0.000000403 | k4 (di-Fe(II) BcII [6]; Kintek Explorer fit, linear mechanism, pH 7.5, 5°C, fixed): 100000000 | k3 (di-Fe(II) BcII [6]; Kintek Explorer fit, linear mechanism, pH 7.5, 5°C, intermediate decay, rate-limiting): 7.2 | Substrate Decay (di-Fe(II) VIM-2 [7]; pH 5.5, 390 nm): 35 s⁻¹ and 35 ± 1 s⁻¹ | Product accumulation (di-Fe(II) VIM-2 [7]; pH 5.5, 485 nm): 23.4 ± 0.5 s⁻¹ | Substrate Decay (di-Fe(II) VIM-2 [7]; pH 6.5, 390 nm): 0.24 s⁻¹ and 0.24 ± 0.01 s⁻¹ | Product accumulation (di-Fe(II) VIM-2 [7]; pH 6.5, 485 nm): 0.44 ± 0.01 s⁻¹ | Substrate Decay (di-Fe(II) VIM-2 [7]; pH 7.5, 390 nm): 0.15 s⁻¹ and 0.15 ± 0.01 s⁻¹ | Product accumulation (di-Fe(II) VIM-2 [7]; pH 7.5, 485 nm): 0.35 ± 0.01 s⁻¹ | Substrate Decay (di-Zn(II) VIM-2 [8]; pH 5.5, 390 nm): 190 s⁻¹ and 190 ± 4 s⁻¹ | Product accumulation (di-Zn(II) VIM-2 [8]; pH 5.5, 485 nm): 93 ± 2 s⁻¹ | Intermediate Decay (di-Zn(II) VIM-2 [8]; pH 5.5, 665 nm): 120 ± 10 s⁻¹ | Intermediate accumulation (di-Zn(II) VIM-2 [8]; pH 5.5, 665 nm): 220 ± 20 s⁻¹ | Substrate Decay (di-Zn(II) VIM-2 [8]; pH 6.5, 390 nm): 290 ± 10 s⁻¹ | Product accumulation (di-Zn(II) VIM-2 [8]; pH 6.5, 485 nm): 130 ± 4 s⁻¹ | Intermediate Decay (di-Zn(II) VIM-2 [8]; pH 6.5, 665 nm): 160 ± 30 s⁻¹ | Intermediate accumulation (di-Zn(II) VIM-2 [8]; pH 6.5, 665 nm): 320 ± 80 s⁻¹ | Substrate Decay (di-Zn(II) VIM-2 [8]; pH 7.5, 390 nm): 320 s⁻¹ and 320 ± 30 s⁻¹ | Product accumulation (di-Zn(II) VIM-2 [8]; pH 7.5, 485 nm): 140 ± 5 s⁻¹ | Intermediate Decay (di-Zn(II) VIM-2 [8]; pH 7.5, 665 nm): 180 ± 50 s⁻¹

di-Fe(II) BcII (Bacillus cereus)
Km ([9]; BcII Fe(II), low O2): 230 ± 30 µM | kcat ([9]; BcII Fe(II), low O2): 38 ± 2 s⁻¹ | kcat/Km ([9]; BcII Fe(II), low O2): 170000 M⁻¹ s⁻¹ | Km ([10]; BcII Fe(II), [E] 2 nM, low O2): 11 ± 2 µM | kcat ([10]; BcII Fe(II), [E] 2 nM, low O2): 12.5 s⁻¹ | kcat/Km ([10]; BcII Fe(II), [E] 2 nM, low O2): 1.2e+06 M⁻¹ s⁻¹

di-Fe(II) VIM-2 (Pseudomonas aeruginosa)
Km ([10]; VIM-2 Fe(II), [E] 1 nM, low O2): 32 ± 5 µM | kcat ([10]; VIM-2 Fe(II), [E] 1 nM, low O2): 44 s⁻¹ | kcat/Km ([10]; VIM-2 Fe(II), [E] 1 nM, low O2): 1.4e+06 M⁻¹ s⁻¹

di-Zn(II) BcII (Bacillus cereus)
Km ([9]; BcII Zn(II)): 220 ± 20 µM | kcat ([9]; BcII Zn(II)): 89 ± 3 s⁻¹ | kcat/Km ([9]; BcII Zn(II)): 400000 M⁻¹ s⁻¹ | Km ([10]; BcII Zn(II), [E] 2 nM): 12 ± 2 µM | kcat ([10]; BcII Zn(II), [E] 2 nM): 10.1 s⁻¹ | kcat/Km ([10]; BcII Zn(II), [E] 2 nM): 820000 M⁻¹ s⁻¹

di-Zn(II) VIM-2 (Pseudomonas aeruginosa)
Km ([10]; VIM-2 Zn(II), [E] 0.1 nM): 9 ± 1 µM | kcat ([10]; VIM-2 Zn(II), [E] 0.1 nM): 143 s⁻¹ | kcat/Km ([10]; VIM-2 Zn(II), [E] 0.1 nM): 1.6e+07 M⁻¹ s⁻¹
